From ChEMBL document CHEMBL2440066, “Acidic biphenyl derivatives: synthesis and biological activity of a new series of potent 5-HT(4) receptor antagonists” (Bioorg Med Chem, 2013)

Tests used:
hERG (KCNH2) [1] = target: T1, hERG (KCNH2) (Homo sapiens, UniProt Q12809); assay: Inhibition of human ERG expressed in HEK293 cells at 50 uM by patch-clamp technique; format: cell-based; details: HEK293 cells that express hERG
[2] = Apparent permeability of the compound in human Caco2 cells at 1 uM; format: ADME, cell-based; details: Caco-2
[3] = Octanol-buffer partition coefficient, log D of the compound at pH 7.4; format: physicochemical
[4] = target: T2, Type-1 angiotensin II receptor (Homo sapiens, UniProt P30556); assay: Displacement of [tyrosyl-3,5-3H]angiotensin-2 from AT1 receptor (unknown origin) expressed in QBI-HEK293A cells after 2 hrs; format: cell-based, HEK293-A
T2 sequence (P30556 whole entry): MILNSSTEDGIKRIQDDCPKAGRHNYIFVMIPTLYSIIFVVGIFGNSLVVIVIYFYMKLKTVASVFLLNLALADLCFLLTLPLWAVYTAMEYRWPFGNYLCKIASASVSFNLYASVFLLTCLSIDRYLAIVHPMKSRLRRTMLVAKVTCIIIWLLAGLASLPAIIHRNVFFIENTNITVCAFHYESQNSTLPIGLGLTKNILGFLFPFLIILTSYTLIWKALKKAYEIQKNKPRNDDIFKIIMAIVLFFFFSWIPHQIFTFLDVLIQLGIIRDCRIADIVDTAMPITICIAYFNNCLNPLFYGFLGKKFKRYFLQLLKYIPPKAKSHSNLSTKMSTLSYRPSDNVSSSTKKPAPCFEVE

[5] = target: T3, 5-hydroxytryptamine receptor 4 (Homo sapiens, UniProt Q13639); assay: Displacement of [3H]GR113808 from human 5HT4B receptor expressed in HEK293 cells; format: cell-based
[6] = target: Voltage-gated inwardly rectifying potassium channel KCNH2 (Homo sapiens, UniProt Q12809); assay: Inhibition of human ERG expressed in HEK293 cells by patch-clamp technique; format: cell-based
3T3-L1 = assay: Cytotoxicity against mouse 3T3L1 cells assessed as cell death at 5 ug/ml after 72 hrs by neutral red assay; format: cell-based; details: 3t3-l1, 72 h
[7] = target: 5-hydroxytryptamine receptor 4 (Rattus norvegicus) (UniProt Q62758); assay: Antagonist activity at 5-HT4 receptor in rat carbachol-contracted esophagus muscularis mucosae assessed as inhibition of 5-HT-induced relaxation
[8] = target: 5-hydroxytryptamine receptor 4 (Rattus norvegicus) (UniProt Q62758); assay: Antagonist activity at 5-HT4 receptor in rat esophagus assessed as inhibition of 5-HT-induced relaxation; format: tissue-based
[9] = target: T3, 5-hydroxytryptamine receptor 4; assay: Antagonist activity at human 5HT4B receptor expressed in HEK293 cells assessed as inhibition of 5HT-stimulated adenylyl cyclase activity; format: functional, cell-based
[10] = target: 5-hydroxytryptamine receptor 4 (Cavia porcellus, UniProt O70528); assay: Displacement of [125I]SB207710 from 5-HT4 receptor in guinea pig brain membranes; format: cell membranes, Membrane
[11] = target: T3, 5-hydroxytryptamine receptor 4; assay: Displacement of [125I]SB207710 from human recombinant 5-HT4 receptor
Rattus norvegicus [12] = assay: Elimination half life in Sprague-Dawley rat assessed as 4'-((4-(((3,4-Dihydro-2H-[1,3]oxazino[3,2-a]indole-10-carbonyl)oxy)methyl)piperidin-1-yl)methyl)[1,1'-biphenyl]-2-carboxylic acid level at 10 mg/kg, po; format: ADME, organism-based; set-up: dose 10 mg/kg, route oral; details: in vivo
Rattus norvegicus [13] = assay: Tmax in Sprague-Dawley rat assessed as 4'-((4-(((3,4-Dihydro-2H-[1,3]oxazino[3,2-a]indole-10-carbonyl)oxy)methyl)piperidin-1-yl)methyl)[1,1'-biphenyl]-2-carboxylic acid level at 10 mg/kg, po; format: ADME, organism-based; set-up: dose 10 mg/kg, route oral; details: in vivo
Rattus norvegicus [14] = assay: Cmax in Sprague-Dawley rat assessed as 4'-((4-(((3,4-Dihydro-2H-[1,3]oxazino[3,2-a]indole-10-carbonyl)oxy)methyl)piperidin-1-yl)methyl)[1,1'-biphenyl]-2-carboxylic acid level at 10 mg/kg, po; format: ADME, organism-based; set-up: dose 10 mg/kg, route oral; details: in vivo
Rattus norvegicus [15] = assay: AUC (0 to infinity) in Sprague-Dawley rat assessed as 4'-((4-(((3,4-Dihydro-2H-[1,3]oxazino[3,2-a]indole-10-carbonyl)oxy)methyl)piperidin-1-yl)methyl)[1,1'-biphenyl]-2-carboxylic acid level at 10 mg/kg, po; format: ADME, organism-based, Plasma; set-up: time infinity, dose 10 mg/kg, route oral; details: in vivo
Rattus norvegicus [16] = assay: AUC (0 to 6 hrs) in Sprague-Dawley rat assessed as 4'-((4-(((3,4-Dihydro-2H-[1,3]oxazino[3,2-a]indole-10-carbonyl)oxy)methyl)piperidin-1-yl)methyl)[1,1'-biphenyl]-2-carboxylic acid level at 10 mg/kg, po; format: ADME, organism-based, Plasma; set-up: time < 6 hr, dose 10 mg/kg, route oral; details: in vivo
hERG (KCNH2) [17] = target: T1, hERG (KCNH2); assay: Inhibition of human ERG expressed in HEK293 cells at 10 uM by patch-clamp technique; format: cell-based; details: HEK293 cells that express hERG
[18] = Tmax in Sprague-Dawley rat at 10 mg/kg, po; format: ADME, organism-based; set-up: dose 10 mg/kg, route oral; details: in vivo
[19] = Cmax in Sprague-Dawley rat at 10 mg/kg, po; format: ADME, organism-based; set-up: dose 10 mg/kg, route oral; details: in vivo
[20] = AUC (0 to 6 hrs) in Sprague-Dawley rat at 10 mg/kg, po; format: ADME, organism-based; set-up: time < 6 hr, dose 10 mg/kg, route oral; details: plasma
hERG (KCNH2) [21] = target: T1, hERG (KCNH2); assay: Inhibition of human ERG expressed in HEK293 cells at 100 uM by patch-clamp technique; format: cell-based; details: HEK293 cells that express hERG

T3 sequence (Q13639 whole entry): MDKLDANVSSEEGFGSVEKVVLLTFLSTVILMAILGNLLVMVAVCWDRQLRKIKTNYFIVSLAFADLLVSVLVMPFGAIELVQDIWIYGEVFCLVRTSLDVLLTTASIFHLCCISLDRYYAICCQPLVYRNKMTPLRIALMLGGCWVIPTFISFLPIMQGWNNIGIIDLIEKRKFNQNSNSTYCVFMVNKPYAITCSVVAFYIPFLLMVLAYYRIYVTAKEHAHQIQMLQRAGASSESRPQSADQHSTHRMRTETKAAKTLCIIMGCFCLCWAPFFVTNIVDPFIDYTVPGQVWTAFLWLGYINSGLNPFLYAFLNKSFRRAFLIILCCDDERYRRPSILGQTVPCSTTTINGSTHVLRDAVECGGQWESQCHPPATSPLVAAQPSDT
Sequence of 5-hydroxytryptamine receptor 4 (Cavia porcellus, UniProt O70528) (O70528 whole entry): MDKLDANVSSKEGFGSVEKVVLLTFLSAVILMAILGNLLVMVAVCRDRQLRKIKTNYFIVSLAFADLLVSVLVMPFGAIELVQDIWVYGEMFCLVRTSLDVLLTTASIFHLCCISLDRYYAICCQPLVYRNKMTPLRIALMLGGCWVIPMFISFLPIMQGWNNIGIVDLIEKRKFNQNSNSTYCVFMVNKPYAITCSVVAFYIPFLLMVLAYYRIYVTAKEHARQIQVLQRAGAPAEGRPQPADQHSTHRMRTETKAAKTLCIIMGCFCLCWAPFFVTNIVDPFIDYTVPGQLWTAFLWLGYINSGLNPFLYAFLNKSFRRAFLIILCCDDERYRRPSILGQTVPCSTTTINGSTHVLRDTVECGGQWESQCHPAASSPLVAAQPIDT
Sequence of Voltage-gated inwardly rectifying potassium channel KCNH2 (Q12809 whole entry): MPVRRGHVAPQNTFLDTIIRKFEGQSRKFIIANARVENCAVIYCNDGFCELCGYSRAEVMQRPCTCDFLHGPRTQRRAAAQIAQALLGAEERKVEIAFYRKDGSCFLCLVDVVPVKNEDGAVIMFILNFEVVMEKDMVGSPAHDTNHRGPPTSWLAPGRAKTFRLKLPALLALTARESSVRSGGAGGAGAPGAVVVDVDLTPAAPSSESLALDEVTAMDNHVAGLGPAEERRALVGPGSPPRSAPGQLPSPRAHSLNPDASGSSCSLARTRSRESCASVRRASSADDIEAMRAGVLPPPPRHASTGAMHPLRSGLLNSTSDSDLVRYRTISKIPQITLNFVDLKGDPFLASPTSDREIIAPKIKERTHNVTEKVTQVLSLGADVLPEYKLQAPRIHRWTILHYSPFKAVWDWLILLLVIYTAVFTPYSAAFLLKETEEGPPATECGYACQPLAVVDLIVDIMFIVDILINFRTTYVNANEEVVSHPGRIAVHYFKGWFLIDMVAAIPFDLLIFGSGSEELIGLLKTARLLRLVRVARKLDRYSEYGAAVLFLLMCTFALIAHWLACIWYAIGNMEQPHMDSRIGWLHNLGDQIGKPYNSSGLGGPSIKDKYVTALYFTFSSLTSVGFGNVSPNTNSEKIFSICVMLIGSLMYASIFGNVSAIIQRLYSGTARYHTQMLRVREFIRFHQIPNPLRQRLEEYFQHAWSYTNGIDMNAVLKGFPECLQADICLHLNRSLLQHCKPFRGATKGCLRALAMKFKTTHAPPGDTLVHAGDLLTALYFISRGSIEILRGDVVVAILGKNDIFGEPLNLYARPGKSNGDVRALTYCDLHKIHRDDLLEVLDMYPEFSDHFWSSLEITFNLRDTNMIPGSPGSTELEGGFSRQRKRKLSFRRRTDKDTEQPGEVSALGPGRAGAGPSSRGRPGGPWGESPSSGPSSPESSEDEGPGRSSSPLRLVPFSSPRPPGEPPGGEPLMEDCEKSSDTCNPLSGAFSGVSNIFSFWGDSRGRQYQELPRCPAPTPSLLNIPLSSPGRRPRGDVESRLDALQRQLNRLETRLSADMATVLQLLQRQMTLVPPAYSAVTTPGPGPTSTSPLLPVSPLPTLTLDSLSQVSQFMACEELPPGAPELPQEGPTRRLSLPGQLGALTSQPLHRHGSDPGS
T1 sequence (Q12809 whole entry): as above
Sequence of 5-hydroxytryptamine receptor 4 (Rattus norvegicus) (Q62758 whole entry): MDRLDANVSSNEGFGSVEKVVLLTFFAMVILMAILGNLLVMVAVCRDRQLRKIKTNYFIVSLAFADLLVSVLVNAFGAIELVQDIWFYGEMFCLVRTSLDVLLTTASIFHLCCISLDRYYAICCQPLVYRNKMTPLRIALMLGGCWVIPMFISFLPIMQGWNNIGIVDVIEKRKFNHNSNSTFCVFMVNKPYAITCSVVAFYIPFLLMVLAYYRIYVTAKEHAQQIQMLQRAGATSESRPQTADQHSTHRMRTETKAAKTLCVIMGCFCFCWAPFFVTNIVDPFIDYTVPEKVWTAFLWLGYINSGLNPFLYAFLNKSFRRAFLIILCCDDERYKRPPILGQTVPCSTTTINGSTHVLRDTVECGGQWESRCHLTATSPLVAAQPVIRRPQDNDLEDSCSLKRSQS

SMILES: O=C(OCC1CCN(Cc2ccc(-c3ccccc3-c3nn[nH]n3)cc2)CC1)c1c2n(c3ccccc13)CCCO2
- inhibition at 50 µM (hERG (KCNH2) [1]): 35%
- Papp at 1 µM [2]: 29 nm/s
- logD [3]: 1.6
- Ki [4]: > 10000 nM
- Ki [5]: 2.51 nM
- IC50 [6]: 27500 nM
- Activity (3T3-L1): 0%

SMILES: Nc1c(Cl)cc(C(=O)CCC2CCN(CCCc3ccccc3)CC2)c2c1OCCO2
- pKb [7]: 9.6

SMILES: COc1ccc(NC(=O)OCC2CCN(CCNS(C)(=O)=O)CC2)c(-c2nc(C)no2)c1
- pKb [8]: 8.1

SMILES: CC(C)(C)C(=O)OCn1nnc(-c2ccccc2-c2ccc(CN3CCC(COC(=O)c4c5n(c6ccccc46)CCCO5)CC3)cc2)n1.CS(=O)(=O)O
- Papp at 1 µM [2]: 51 nm/s
- logD [3]: 4.3

SMILES: CC(C)NCC(O)c1ccc(NS(C)(=O)=O)cc1 (stereo unspecified) [SOTALOL]
- Papp at 1 µM [2]: 8 nm/s

SMILES: Cn1cc(C(=O)OCC2CCN(CCNS(C)(=O)=O)CC2)c2ccccc21
- pKb [9]: 8.7

SMILES: CCCCN1CCC(CNC(=O)c2c3n(c4ccccc24)CCCO3)CC1 [PIBOSEROD]
- Ki [4]: > 10000 nM
- pKb [9]: 9.5
- Ki [10]: 1.58 nM
- Ki [11]: 1.58 nM

SMILES: O=C(OCC1CCN(Cc2ccc(-c3ccccc3-c3nnn[nH]3)cc2)CC1)c1c2n(c3ccccc13)CCCO2
- pKb [9]: 10.6

SMILES: Cc1noc(-c2ccccc2NC(=O)OCC2CCN(CCNS(C)(=O)=O)CC2)n1
- pKb [8]: 10.8

SMILES: CC(=O)OCOC(=O)c1ccccc1-c1ccc(CN2CCC(COC(=O)c3c4n(c5ccccc35)CCCO4)CC2)cc1.CS(=O)(=O)O
- Papp at 1 µM [2]: 14 nm/s
- logD [3]: 4.5

SMILES: CS(=O)(=O)NCCN1CCC(CCC(=O)c2cc(Cl)c(N)c3c2OCCO3)CC1
- pKb [7]: 9.9

SMILES: CC(C)(C)C(=O)OCOC(=O)c1ccccc1-c1ccc(CN2CCC(COC(=O)c3c4n(c5ccccc35)CCCO4)CC2)cc1.CS(=O)(=O)O
- Papp at 1 µM [2]: 90 nm/s
- logD [3]: 4.7

SMILES: O=C(NCC1CCN(Cc2ccc(-c3ccccc3-c3nnn[nH]3)cc2)CC1)c1c2n(c3ccccc13)CCCO2
- Ki [4]: > 10000 nM
- pKb [9]: 9.7
- Ki [5]: 3.98 nM
- Activity (3T3-L1): 0%

SMILES: CCCCN1CCC(CCC(=O)c2cc(Cl)c(N)c3c2OCCO3)CC1
- pKb [7]: 9.9

SMILES: COC(=O)c1ccccc1-c1ccc(CN2CCC(COC(=O)c3c4n(c5ccccc35)CCCO4)CC2)cc1.CS(=O)(=O)O
- beta t1/2 (Rattus norvegicus [12]): 15.6 h
- Tmax (Rattus norvegicus [13]): 1 h
- Cmax (Rattus norvegicus [14]): 0.03 µg/mL
- AUC (Rattus norvegicus [15]): 0.542 µg·h/mL
- AUC (Rattus norvegicus [16]): 0.114 µg·h/mL
- inhibition at 10 µM (hERG (KCNH2) [17]): 2%
- Tmax [18]: 2 h
- Cmax [19]: 0.244 µg/mL
- Papp at 1 µM [2]: 250 nm/s
- logD [3]: 4.5
- Ki [4]: > 10000 nM
- pKb [9]: 10.6
- Ki [5]: 0.00126 nM
- IC50 [6]: 131 nM
- Activity (3T3-L1): 75%
- AUC(0-t) at 6 h [20]: 1.11 µg·h/mL

SMILES: O=C(O)c1ccccc1-c1ccc(CN2CCC(CNC(=O)c3c4n(c5ccccc35)CCCO4)CC2)cc1
- Ki [4]: > 10000 nM
- Ki [5]: 0.631 nM

SMILES: CS(=O)(=O)O.Cc1oc(=O)oc1COC(=O)c1ccccc1-c1ccc(CN2CCC(COC(=O)c3c4n(c5ccccc35)CCCO4)CC2)cc1
- Papp at 1 µM [2]: 161 nm/s
- logD [3]: 4.6

SMILES: Cl.O=C(OCc1ccccc1)c1ccccc1-c1ccc(CN2CCC(COC(=O)c3c4n(c5ccccc35)CCCO4)CC2)cc1
- Papp at 1 µM [2]: 11 nm/s
- logD [3]: 5.1

SMILES: CS(=O)(=O)O.O=C(O)c1ccccc1-c1ccc(CN2CCC(COC(=O)c3c4n(c5ccccc35)CCCO4)CC2)cc1
- inhibition at 100 µM (hERG (KCNH2) [21]): 31%
- Papp at 1 µM [2]: 8 nm/s
- logD [3]: 1.3
- Ki [4]: 1580 nM
- pKb [9]: 9.8
- Ki [5]: 0.0501 nM
- IC50 [6]: 47500 nM
- Activity (3T3-L1): 14%

SMILES: CCCCOC(=O)c1ccccc1-c1ccc(CN2CCC(COC(=O)c3c4n(c5ccccc35)CCCO4)CC2)cc1.CS(=O)(=O)O
- beta t1/2 (Rattus norvegicus [12]): 9.92 h
- Tmax (Rattus norvegicus [13]): 2 h
- Cmax (Rattus norvegicus [14]): 0.01 µg/mL
- AUC (Rattus norvegicus [15]): 0.124 µg·h/mL
- AUC (Rattus norvegicus [16]): 0.039 µg·h/mL
- Tmax [18]: 6 h
- Cmax [19]: 0.08 µg/mL
- Papp at 1 µM [2]: 139 nm/s
- logD [3]: 4.9
- AUC(0-t) at 6 h [20]: 0.313 µg·h/mL

SMILES: CCCCN1CCC(CNC(=O)c2c3n(c4cc(O)ccc24)CCCO3)CC1
- Ki [10]: 794 nM
- Ki [11]: 794 nM

SMILES: O=C(NCC1CCNCC1)c1c2n(c3ccccc13)CCCO2
- Ki [10]: 63.1 nM
- Ki [11]: 63.1 nM

SMILES: COC(=O)c1ccccc1-c1ccc(CN2CCC(CNC(=O)c3c4n(c5ccccc35)CCCO4)CC2)cc1
- Ki [4]: > 10000 nM
- Ki [5]: 0.0631 nM

SMILES: COc1ccc(CCCN2CCC(CCC(=O)c3cc(Cl)c(N)c4c3OCCO4)CC2)cc1
- pKb [7]: 10.6

SMILES: CC(O)CCN1CCC(CNC(=O)c2c3n(c4ccccc24)CCCO3)CC1 (stereo unspecified)
- Ki [10]: 0.794 nM
- Ki [11]: 0.794 nM

SMILES: Cc1noc(-c2ccc(F)cc2NC(=O)OCC2CCN(CCNS(C)(=O)=O)CC2)n1
- pKb [8]: 8.9

SMILES: CC(C)CCOC(=O)c1ccccc1-c1ccc(CN2CCC(COC(=O)c3c4n(c5ccccc35)CCCO4)CC2)cc1.CS(=O)(=O)O
- Papp at 1 µM [2]: 54 nm/s
- logD [3]: 4.9
